Data from patent publication US11053205B2, “Phenazine derivatives as antimicrobial agents” (University of Florida Research Foundation, Incorporated, priority 2017, dated 2021).
In brackets after ≈: the same amount, converted by molar mass. Several values for one entry are separate records, joined by “and”; a condition that tells them apart may be missing. Equal entries are not always repeated. Where two headings read alike, the source gives them in different places. Marks after values point to notes of the source that are not given here.

Columns and labels:
MRSA-2 = experiment: MIC, broth microdilution (CLSI)
MRSE 35984 biofilms = experiment: Calgary Biofilm Device (CBD) assay, MBC/MBEC; conditions: for MRSE 35984 MBEC / MRSE 35984 MBC: CBD; for MRSE 35984 MBEC: biofilm eradication; for MRSE 35984 MBC: planktonic killing; for MBC: Staphylococcus epidermidis, MRSE, read-out: MRSE 35984 MBC
MRSE 35984 = experiment: MIC, broth microdilution (CLSI); conditions: for MRSE 35984 MIC: 16 to 18 hours at 37° C.
MRSA BAA-1707 biofilms = experiment: Calgary Biofilm Device (CBD) assay, MBC/MBEC; conditions: for MRSA BAA-1707 MBC: planktonic killing
MRSA BAA-1707 = experiment: MIC, broth microdilution (CLSI); conditions: 16 to 18 hours at 37° C.; 0.10 = lowest concentration tested
VRE 700221 biofilms = experiment: Calgary Biofilm Device (CBD) assay, MBC/MBEC; conditions: for VRE 700221 MBC / VRE 700221 MBEC: CBD; for VRE 700221 MBC: planktonic killing; for VRE 700221 MBEC: biofilm eradication
VRE 700221 = experiment: MIC, broth microdilution (CLSI); conditions: 16 to 18 hours at 37° C.
[1] = test system: M. tuberculosis H37Ra (ATCC 25177); experiment: MIC assay for Mycobacterium tuberculosis; assay type: cell-based; conditions: read-out: MtB H37Ra MIC
Description: (§1) The culture was then diluted with fresh medium until an OD600 of 0.01 was reached. […] The final DMSO concentration was maintained at 0.5%. […] Three rows were reserved for each compound. […] OD600 absorbance was recorded using SPECTRAMAX M5 (Molecular Devices). Data obtained from three independent experiments were analyzed using Excel.
as §1, with “SpectraMax” for “SPECTRAMAX”

MRSA-2 biofilms = experiment: Calgary Biofilm Device (CBD) assay, MBC/MBEC; conditions: for MRSA-2 MBEC: biofilm eradication; for MBC: Staphylococcus aureus, MRSA, read-out: MRSA-2 MBC
[2] = Mycobacterium tuberculosis, 168 h, seven days at 37° C.

Structure (SMILES)	MRSE 35984 MBEC (MRSE 35984 biofilms)	MRSE 35984 MBC (MRSE 35984 biofilms)	MRSE 35984 MIC (MRSE 35984)	MRSA BAA-1707 MBC (MRSA BAA-1707 biofilms; CBD)	MRSA BAA-1707 MIC (MRSA BAA-1707)	VRE 700221 MBC (VRE 700221 biofilms)	VRE 700221 MIC (VRE 700221)	also measured
CCN(CC)c1ccc2nc3c(O)c(Br)cc(Br)c3nc2c1Br [Compound 64A]	6.25 µM	9.38 µM	0.1^b μM	9.38 µM	0.15^a μM	2.35 µM	0.3^a μM	MRSA-2 MIC (MRSA-2; 16 to 18 hours at 37° C.): 0.3^a μM; Hemolysis at 200 μM (human red blood cells): ≤1%
Cc1ccc2nc3c(O)ccc(Br)c3nc2c1 [Compound 66A]	–	–	12.5 µM	–	12.5 ^ μM	–	25 µM	MIC [1]: 25 µM (≈ 7.23 µg/mL)
CCc1ccc2nc3c(O)ccc(Br)c3nc2c1 [Compound 67A]	–	–	9.38^a μM	–	–	–	12.5 µM	MIC [1]: 25 µM (≈ 7.58 µg/mL); IC50 (HeLa cells): > 100 µM
Cc1cc(C)c2nc3c(Br)ccc(O)c3nc2c1 [Compound 68A]	–	–	2.35^a μM	–	4.69^a μM	–	9.38^a μM	MIC [1]: 50 µM (≈ 15.2 µg/mL); IC50 (HeLa cells): > 100 µM
Oc1ccc(Br)c2nc3cc(Cl)ccc3nc12 [Compound 69A]	–	–	18.8^a μM	–	–	–	25 µM	MIC [1]: 6.25 µM (≈ 1.93 µg/mL); IC50 (HeLa cells): > 100 µM
CS(=O)(=O)N1CCN(C(=O)Oc2c(Br)cc(Br)c3nc4ccccc4nc23)C1=O [Compound 76A]	37.5 µM	18.8 µM	1.56 µM	37.5 µM	–	9.38^a/9.38^a μM	3.13 µM	IC50 (HeLa cells): > 100 µM; Hemolysis at 200 μM (human red blood cells): ≤1%; MRSA BAA-1707 MBEC (MRSA BAA-1707 biofilms; CBD, biofilm eradication): 75 µM; VRE 700221 MBEC (VRE 700221 biofilms): 9.38^a/9.38^a μM
CC1=C(C)C(=O)C(COC(=O)OCOc2c(Br)cc(Br)c3nc4ccccc4nc23)=C(C)C1=O [Compound 86A]	150 µM	37.5 µM	2.35^a μM	25 µM	2.35^a μM	12.5 µM	9.38^a μM	Hemolysis at 200 μM (human red blood cells): ≤1%; VRE 700221 MBEC (VRE 700221 biofilms): 9.38 µM
CC1=C(C)C(=O)C(COC(=O)OCOc2c(Br)cc(Br)c3nc4cc(Cl)ccc4nc23)=C(C)C1=O [Compound 87A]	25 µM	12.5 µM	–	6.25 µM	0.15^a μM	3.13^c/3.13^c μM	1.56 µM	VRE 700221 MBEC (VRE 700221 biofilms): 3.13^c/3.13^c μM
O=C(O)CN(CCN(CC(=O)O)CC(=O)O)CC(=O)O [EDTA, ethylenediaminetetraacetic acid, reference compound]	> 2000 µM	1000 µM	–	>2000 />2000 μM	–	–	–	MRSA-2 MBEC (MRSA-2 biofilms; CBD): 2000/>2000 μM; MBC (MRSA-2 biofilms): 2000 µM (≈ 584 µg/mL); MBC (MRSE 35984 biofilms): 1000 µM (≈ 292 µg/mL); MBC (MRSA BAA-1707 biofilms; Staphylococcus aureus, BAA1707|MRSA, read-out: MRSA BAA-1707 MBC, CBD, planktonic killing): > 2000 µM; MBC (VRE 700221 biofilms; Enterococcus, VRE, read-out: VRE 700221 MBC): > 2000 µM
Oc1c(Br)cc(Br)c2nc3ccc(Cl)cc3nc12 [HP 1-22]	–	–	–	–	–	–	–	MIC [1, 2]: 6.25 µM and 2.4 µg/mL; Hemolysis at 200 μM (human red blood cells; human, 1 h, 200 μM, pH 7.2): ≤1%
COCCOCCOCCOCCOC(=O)Oc1c(Br)cc(Br)c2nc3ccccc3nc12 [HP 1-24]	–	–	–	–	–	–	–	MIC [1, 2]: 25 µM (≈ 14.7 µg/mL); HeLa cell cytotoxicity at 100 μM (HeLa cells): no HeLa cell cytotoxicity; Hemolysis at 200 μM (human red blood cells; human, 1 h, 200 μM, pH 7.2): 2.4%
CC(=O)N[C@@H](CS)C(=O)O [NAC, reference compound]	>2000/>2000 μM	>2000/>2000 μM	–	–	–	>2000 />2000 μM	–	MRSA-2 MBEC (MRSA-2 biofilms; CBD): >2000/>2000 μM; MRSA-2 MBC (MRSA-2 biofilms; CBD, planktonic killing): >2000/>2000 μM; VRE 700221 MBEC (VRE 700221 biofilms): >2000 />2000 μM
CO[C@H]1/C=C/O[C@@]2(C)Oc3c(C)c(O)c4c(O)c(c(/C=N/N5CCN(C)CC5)c(O)c4c3C2=O)NC(=O)/C(C)=C\C=C\[C@H](C)[C@H](O)[C@@H](C)[C@@H](O)[C@@H](C)[C@H](OC(C)=O)[C@@H]1C [Rifampin, reference compound]	–	–	–	–	–	–	–	MIC (MRSA-2; Staphylococcus aureus, MRSA, read-out: MRSA-2 MIC): 0.1 µM (≈ 0.0823 µg/mL); MRSA-2 MBEC (MRSA-2 biofilms; CBD): 46.9 µM; MBC (MRSA-2 biofilms): 2 µM (≈ 1.65 µg/mL); MBC (MRSE 35984 biofilms): 3 µM (≈ 2.47 µg/mL); MIC (MRSE 35984; Staphylococcus epidermidis, MRSE, read-out: MRSE 35984 MIC, 16 to 18 hours at 37° C.): 0.1 µM (≈ 0.0823 µg/mL)
[H]/N=C(/N)N[C@H]1[C@H](O)[C@@H](O)[C@H](O[C@@H]2O[C@@H](C)[C@](O)(C=O)[C@H]2O[C@@H]2O[C@@H](CO)[C@H](O)[C@@H](O)[C@@H]2NC)[C@@H](N/C(N)=N\[H])[C@@H]1O [streptomycin, reference compound]	–	–	–	–	–	–	–	MIC ([1]; Mycobacterium tuberculosis, 168 h): 1.32 µM (≈ 0.768 µg/mL)
